Experiments:
[1] = Comparison of 99mTc TPB, 99mTc PTP and 99mTc phytate after intravenous injection to dogs; assay type: in vivo; conditions: dog, in vivo, iv, 0.5 h
[2] = in vivo; cited from earlier work
[3] = Accumulation of phosphoric acid derivatives investigated as technetium-99m diagnostic agents (bone, liver, RES); conditions: in vivo
From the text: It is possible to use phosphoric acid derivatives, particularly organic phosphonic acid derivatives, for bone scintigraphy. Many compounds have been investigated in the search for derivatives suitable as a technetium-99m diagnostic agent for bone.

excretion of activity with the urine [1]: 6.6 % of the test dose
accumulation in bone [3]: higher
accumulation in the RES [3]: lower
Substance: phytate [reference compound]
accumulation of activity in the RES [2]: low compared with the products mentioned above
